The test system of test [1] is Candida albicans. Briefly: Antifungal activity against Candida albicans ATCC 10231 assessed as microbial growth inhibition at 250 ug/mL after 48 hrs broth microdilution method. It is filed as functional, organism-based. Background: Broth dilution looks for growth in wells or tubes with falling amounts of substance.
In test [2] the test system is Candida albicans. In words: Antifungal activity against Candida albicans ATCC 10231 by bioautography TLC plate assay based MTT method. Type of test: functional, organism-based. On the technique in general: Tetrazolium dyes change colour on reduction, which living cells bring about.
Test [3] relates to Cryptococcus neoformans. In words: Antifungal activity against Cryptococcus neoformans ATCC 32264 by bioautography TLC plate assay based MTT method. Type of test: functional, organism-based.
Test [4] concerns Cryptococcus neoformans. Briefly: Antifungal activity against Cryptococcus neoformans ATCC 32264 assessed as microbial growth inhibition at 250 ug/mL after 48 hrs broth microdilution method. It is filed as functional, organism-based.
Test [5] relates to Candida albicans. In words: Antifungal activity against Candida albicans ATCC 10231 assessed as microbial growth inhibition at => 125 ug/mL after 48 hrs broth microdilution method. It is filed as functional.
Test [6] deals with Cryptococcus neoformans. In words: Antifungal activity against Cryptococcus neoformans ATCC 32264 assessed as microbial growth inhibition at => 125 ug/mL after 48 hrs broth microdilution method. It is filed as functional.
The subject of test [7] is Candida albicans. In words: Antifungal activity against Candida albicans ATCC 10231 assessed as microbial growth inhibition at 50 to 300 ug/mL after 48 hrs broth microdilution method. Type of test: functional, organism-based.
The subject of test [8] is Cryptococcus neoformans. Briefly: Antifungal activity against Cryptococcus neoformans ATCC 32264 assessed as microbial growth inhibition at 50 to 300 ug/mL after 48 hrs broth microdilution method. It is filed as functional, organism-based.
In test [9] the test system is Candida albicans. In words: Antifungal activity against Candida albicans ATCC 10231 assessed as microbial growth inhibition at 125 ug/mL after 48 hrs broth microdilution method. It is filed as functional. To be noted: ATCC 10231, 48 h, read-out: GI.
For test [10], the system named is Cryptococcus neoformans. Briefly: Antifungal activity against Cryptococcus neoformans ATCC 32264 assessed as microbial growth inhibition at 15.6 ug/mL after 48 hrs broth microdilution method. It is filed as functional. To be noted: ATCC 32264, 48 h, read-out: GI.
The subject of test [11] is Candida albicans. Briefly: Antifungal activity against Candida albicans ATCC 10231 assessed as microbial growth inhibition at 15.6 ug/mL after 48 hrs broth microdilution method. The following applies: ATCC 10231, 48 h, read-out: GI. Type of test: functional.
Test [12] deals with Cryptococcus neoformans. In words: Antifungal activity against Cryptococcus neoformans ATCC 32264 assessed as microbial growth inhibition at 31.25 ug/mL after 48 hrs broth microdilution method. It is filed as functional. To be noted: ATCC 32264, 48 h, read-out: GI.
The test system of test [13] is Candida albicans. In words: Antifungal activity against Candida albicans ATCC 10231 assessed as microbial growth inhibition at 62.5 ug/mL after 48 hrs broth microdilution method. Type of test: functional. The following applies: ATCC 10231, 48 h, read-out: GI.
In test [14] the test system is Cryptococcus neoformans. Briefly: Antifungal activity against Cryptococcus neoformans ATCC 32264 assessed as microbial growth inhibition at 62.5 ug/mL after 48 hrs broth microdilution method. It is filed as functional. To be noted: ATCC 32264, 48 h, read-out: GI.
Test [15] deals with Cryptococcus neoformans. In words: Antifungal activity against Cryptococcus neoformans ATCC 32264 assessed as microbial growth inhibition after 48 hrs broth microdilution method. Type of test: functional.
For test [16], the system named is Candida albicans. In words: Antifungal activity against Candida albicans ATCC 10231 assessed as microbial growth inhibition after 48 hrs broth microdilution method. It is filed as functional, organism-based.

In brackets after ≈: the same amount, converted by molar mass. Activity calls are given as the source filed them. No cut-off for these calls is given here.

Regarding `C=C1[C@H]2C[C@H]2[C@]2(C)[C@@H]3O[C@@]34OC(=O)C(COC(C)=O)=C4C[C@@H]12`, the “growth inhibition (GI)” value in the test with Candida albicans [1] and in the test with Cryptococcus neoformans [4] was “inactive” throughout. Besides, the “growth inhibition (GI)” value in the test with Candida albicans [2] and with Cryptococcus neoformans [3] was “Active” throughout.

Regarding `C=C1[C@H]2C[C@H]2[C@]2(C)C=C3OC(=O)C(CO)=C3C[C@@H]12`, the “growth inhibition (GI)” value with Candida albicans [5] and in the test on Cryptococcus neoformans [6] was 50% each time. For the same molecule, the “growth inhibition (GI)” value in the test on Candida albicans [2] and in the test with Cryptococcus neoformans [3] was “Active” each time.

Turning to `C=C1[C@H]2C[C@H]2[C@]2(C)C[C@@H]3OC(=O)C(CO)=C3C[C@@H]12`, the “growth inhibition (GI)” value in the test on Candida albicans [7] and in the test on Cryptococcus neoformans [8] was “inactive” throughout.

As for `C=C1[C@H]2C[C@H]2[C@]2(C)C=C3OC(=O)C(COC(C)=O)=C3C[C@@H]12`, in the test on Candida albicans [9], the inhibition of growth at 125 µg/mL is 100%. In addition, the inhibition of growth at 15.6 µg/mL in the test on Cryptococcus neoformans [10] and in the test with Candida albicans [11] was 50% in each case. In addition, the “growth inhibition (GI)” value in the test on Candida albicans [2] and in the test on Cryptococcus neoformans [3] was “Active” throughout. In addition, the inhibition of growth at 31.25 µg/mL in the test on Cryptococcus neoformans [12] was 80%. Besides, the inhibition of growth at 62.5 µg/mL in the test on Candida albicans [13] came to 80%; in the test on Cryptococcus neoformans [14], 100%.

Turning to `C=C1[C@@H]2[C@H]3OC(=O)[C@@H](C)[C@@H]3CCC(=C)[C@@H]2C[C@@H]1O`, the “growth inhibition (GI)” value in the test with Cryptococcus neoformans [15], in the test on Candida albicans [16], in the test on Candida albicans [2] and with Cryptococcus neoformans [3] was “Active” throughout.

For the molecule `C=C1[C@@H]2[C@H]3OC(=O)C(=C)[C@@H]3CCC(=C)[C@@H]2C[C@@H]1O` [ZALUZANIN C], the MIC (commonly the lowest concentration that inhibits growth of the organism) with Cryptococcus neoformans [15] (ATCC 32264, 48 h) was 125 µg/mL (≈ 507 µM). In addition, the “growth inhibition (GI)” value with Candida albicans [16] and with Candida albicans [2] was “Active” in each case.
